From patent US5705509A, “Tricyclic heterocyclic compounds as 5-HT4 receptor antagonists” (SmithKline Beecham plc, priority 1993, dated 1998)

Biological target: T1, 5-HT4 receptor (Cavia porcellus, UniProt O70528)
T1 construct: Longitudinal muscle-myenteric plexus preparations, approximately 3 cm long, are obtained from the distal colon region; from tissue; host or cells: guinea-pig distal colon, longitudinal muscle-myenteric plexus
Test: Guinea pig colon 5-HT4 receptor antagonist activity (reduction of 5-HT evoked contraction of longitudinal muscle-myenteric plexus)
Settings: distal colon longitudinal muscle-myenteric plexus; contraction evoked by 5-HT; methiothepin 10^-7 M and granisetron 10^-6 M present; n=4; read-out: pIC50 (-log concentration of antagonist which reduces the contraction by 50%) (converted)
Description: Male guinea-pigs, weighing 250-400 g are used. Longitudinal muscle-myenteric plexus preparations, approximately 3 cm long, are obtained from the distal colon region. These are suspended under a 0.5 g load in isolated tissue baths containing Krebs solution bubbled with 5% CO2 in O2 and maintained at 37° C. In all experiments, the Krebs solution also contains methiothepin 10^-7 M and granisetron 10^-6 M to block effects at 5-HT1, 5-HT2 and 5-HT3 receptors.
After construction of a simple concentration-response curve with 5-HT, using 30s contact times and a 15 min dosing cycle, a concentration of 5-HT is selected so as to obtain a contraction of the muscle approximately 40-70% maximum(10^-9 M approx). The tissue is then alternately dosed every 15 min with this concentration of 5-HT and then with an approximately equi-effective concentration of the nicotine receptor stimulant, dimethylphenylpiperazinium (DMPP). After obtaining consistent responses to both 5-HT and DMPP, increasing concentrations of a putative 5-HT4 receptor antagonist are then added to the bathing solution. The effects of this compound are then determined as a percentage reduction of the contractions evoked by 5-HT or by DMPP. […] A compound which reduces the response to 5-HT but not to DMPP is believed to act as a 5-HT4 receptor antagonist.

T1 sequence (O70528 whole entry): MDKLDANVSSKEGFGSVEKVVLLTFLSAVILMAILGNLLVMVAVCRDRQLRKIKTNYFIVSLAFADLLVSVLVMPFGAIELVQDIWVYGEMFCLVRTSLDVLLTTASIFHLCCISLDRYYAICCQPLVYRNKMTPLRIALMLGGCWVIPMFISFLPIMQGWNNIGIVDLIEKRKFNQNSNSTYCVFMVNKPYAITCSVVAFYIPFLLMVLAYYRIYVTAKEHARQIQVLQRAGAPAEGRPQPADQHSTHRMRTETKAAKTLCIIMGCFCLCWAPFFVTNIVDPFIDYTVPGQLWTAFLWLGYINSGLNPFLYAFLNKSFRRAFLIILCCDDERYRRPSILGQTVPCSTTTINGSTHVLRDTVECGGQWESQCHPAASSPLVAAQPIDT

Question: How did the IC50 turn out when `CCCCN1CCC(COC(=O)c2cc3[nH]cnc3c3c2OCCO3)CC1` [Example 1, (1-Butyl-4-piperidinyl)methyl 1 H-7,8-dihydro-[1,4]-dioxino[2,3-g]benzimidazole-5-carboxylate] was run?
Answer: The IC50 was 166 nM.
